The values that follow come from ChEMBL document CHEMBL1158317, “Porrigenins A and B, novel cytotoxic and antiproliferative sapogenins isolated from Allium porrum” (J Nat Prod, 1997).

Common to all, as to assay type: functional, cell-based
For experiment [1], the system named is J774. The experiment can be described thus: Cytotoxicity against mouse J774 cells after 24 hrs by MTT assay. The following applies: J774, 24 h. (Tetrazolium assays rely on reduction of a dye to a coloured formazan, in cell work by metabolically active cells.)
In experiment [2] the test system is P388. The experiment in a line: Cytotoxicity against mouse P388 cells after 24 hrs by MTT assay. The following applies: P388, 24 h.
For experiment [3], the system named is P388. The experiment in a line: Antiproliferative activity against mouse P388 cells after 72 hrs by MTT assay. The note with it: P388, 72 h.
In experiment [4] the test system is WEHI-164. The experiment can be described thus: Antiproliferative activity against mouse WEHI164 cells after 48 hrs by MTT assay. The note with it: WEHI-164, 48 h.
Experiment [5] concerns IGR-1. The experiment in a line: Antiproliferative activity against human IGR-1 cells after 72 hrs by MTT assay. The note with it: IGR-1, 72 h.
Experiment [6] relates to WEHI-164. The experiment can be described thus: Cytotoxicity against mouse WEHI164 cells after 24 hrs by MTT assay. The following applies: WEHI-164, 24 h.
The test system of experiment [7] is J774. The experiment can be described thus: Antiproliferative activity against mouse J774 cells after 48 hrs by MTT assay. The following applies: J774, 48 h.
In experiment [8] the test system is J774. The experiment in a line: Antiproliferative activity against mouse J774 cells after 72 hrs by MTT assay. The following applies: J774, 72 h.
Experiment [9] relates to WEHI-164. The experiment in a line: Antiproliferative activity against mouse WEHI164 cells after 72 hrs by MTT assay. The note with it: WEHI-164, 72 h.
In experiment [10] the test system is P388. The experiment in a line: Antiproliferative activity against mouse P388 cells after 48 hrs by MTT assay. The following applies: P388, 48 h.
The subject of experiment [11] is IGR-1. The experiment in a line: Antiproliferative activity against human IGR-1 cells after 48 hrs by MTT assay. The following applies: IGR-1, 48 h.
The test system of experiment [12] is IGR-1. The experiment in a line: Cytotoxicity against human IGR-1 cells after 24 hrs by MTT assay. The note with it: IGR-1, 24 h.

The structures appear in SMILES notation. Converted amounts (≈) assume the structure as drawn.

By IC50 is commonly meant the concentration at which inhibition is half-maximal. `C[C@@H]1CC[C@@]2(OC1)O[C@H]1C[C@H]3[C@@H]4C[C@@H](O)[C@H]5C[C@@H](O)[C@H](O)C[C@]5(C)[C@H]4CC[C@]3(C)[C@H]1[C@@H]2C` [AGIGENIN]: the 50% inhibitory concentration (IC50) was 896 µg/mL (≈ 2000 µM) with J774 [1]; 609 µg/mL (≈ 1360 µM) in the experiment on P388 [2]; 354 µg/mL (≈ 789 µM) in the experiment on P388 [3]; 548 µg/mL (≈ 1220 µM) in the experiment on WEHI-164 [4]; 264 µg/mL (≈ 588 µM) in the experiment with IGR-1 [5]; 836 µg/mL (≈ 1860 µM) in the experiment with WEHI-164 [6]. The half-inhibitory concentration (IC50) came to 655 µg/mL (≈ 1460 µM) in the experiment on J774 [7]; 321 µg/mL (≈ 715 µM) in the experiment with J774 [8]; 210 µg/mL (≈ 468 µM) in the experiment on WEHI-164 [9]; 471 µg/mL (≈ 1050 µM) in the experiment with P388 [10]; 627 µg/mL (≈ 1400 µM) in the experiment on IGR-1 [11].

`Sc1ncnc2nc[nH]c12` [MERCAPTOPURINE ANHYDROUS]: the IC50 was found to be 61 µg/mL (≈ 401 µM) in the experiment with J774 [1]; 37 µg/mL (≈ 243 µM) in the experiment with P388 [2]; 0.3 µg/mL (≈ 1.97 µM) in the experiment with P388 [3]; 42 µg/mL (≈ 276 µM) in the experiment with WEHI-164 [4]; 1.1 µg/mL (≈ 7.23 µM) with IGR-1 [5]; 83 µg/mL (≈ 545 µM) with WEHI-164 [6]. Besides, the IC50 in the experiment with J774 [7] was determined as 3.6 µg/mL (≈ 23.7 µM); in the experiment on J774 [8] it was 0.5 µg/mL (≈ 3.29 µM); with IGR-1 [12] it was 51.7 µg/mL (≈ 340 µM); in the experiment with WEHI-164 [9], 2.7 µg/mL (≈ 17.7 µM); in the experiment on P388 [10], 2.1 µg/mL (≈ 13.8 µM); in the experiment on IGR-1 [11] it was 12.3 µg/mL (≈ 80.8 µM).

For `C[C@@H]1CC[C@@]2(OC1)O[C@H]1C[C@H]3[C@@H]4C[C@@H](O)[C@H]5C[C@@H](O)[C@@H](O)C[C@]5(C)[C@H]4CC[C@]3(C)[C@H]1[C@@H]2C` [PORRIGENIN A], the IC50 in the experiment with J774 [1] was 754 µg/mL (≈ 1680 µM); with P388 [2], 617 µg/mL (≈ 1380 µM); in the experiment on P388 [3], 115 µg/mL (≈ 256 µM); in the experiment on WEHI-164 [4], 277 µg/mL (≈ 617 µM); with IGR-1 [5], 184 µg/mL (≈ 410 µM); in the experiment on J774 [7], 515 µg/mL (≈ 1150 µM). Also, the half-maximal inhibitory concentration (IC50) in the experiment on J774 [8] came out at 270 µg/mL (≈ 602 µM); in the experiment with IGR-1 [12] it was 942 µg/mL (≈ 2100 µM); with WEHI-164 [9] it was 110 µg/mL (≈ 245 µM); in the experiment with P388 [10] it was 270 µg/mL (≈ 602 µM); in the experiment with IGR-1 [11], 471 µg/mL (≈ 1050 µM).

Turning to `C[C@@H]1CC[C@@]2(OC1)O[C@H]1C[C@H]3[C@@H]4C[C@@H](O)[C@H]5C[C@@H](O)C(=O)C[C@]5(C)[C@H]4CC[C@]3(C)[C@H]1[C@@H]2C` [PORRIGENIN B], the IC50 stood at 552 µg/mL (≈ 1240 µM) with J774 [1]; 837 µg/mL (≈ 1870 µM) with P388 [2]; 74 µg/mL (≈ 166 µM) with P388 [3]; 344 µg/mL (≈ 770 µM) in the experiment with WEHI-164 [4]; 45 µg/mL (≈ 101 µM) in the experiment with IGR-1 [5]; 655 µg/mL (≈ 1470 µM) in the experiment on WEHI-164 [6]. Moreover, the half-maximal inhibitory concentration (IC50) is 111 µg/mL (≈ 249 µM) with J774 [7]; 51 µg/mL (≈ 114 µM) in the experiment with J774 [8]; 823 µg/mL (≈ 1840 µM) in the experiment with IGR-1 [12]; 92 µg/mL (≈ 206 µM) in the experiment on WEHI-164 [9]; 185 µg/mL (≈ 414 µM) in the experiment with P388 [10]; 330 µg/mL (≈ 739 µM) in the experiment with IGR-1 [11].
